Source: paper PMC4853610, “Systemic Dosing of Thymosin Beta 4 before and after Ischemia Does Not Attenuate Global Myocardial Ischemia-Reperfusion Injury in Pigs” (Frontiers in Pharmacology, 2016)

Legend:
small mesentery arteries = test: Artery wire myography, small mesentery arteries; set-up: species or system pig
From the text: (§1) Eighteen representative segments of small mesentery arteries and coronary arteries (250–350 μm in diameter) from 4 blood-donor pigs were studied by wire myography for contractile responses to TB4 in vitro. Samples were excised rapidly and placed in ice-cold oxygenated Krebs solution. The composition of the Krebs solution was as follows (in mM): 119 NaCl, 4.7 KCl, 25 NaHCO3, 1.2 NaH2PO4, 2.5 CaCl2, 1.2 MgSO4, and 5.5 glucose. Arterial rings (2 mm in length) were mounted using 40 μm wires in a microvessel myograph (Danish Myograph Technologies, Aarhus, Denmark) for isometric tension recordings. After mounting, vessels were equilibrated, normalized and contracted repeatedly with 62 mM potassium chloride until maximal and reproducible contractions were obtained. To examine the contracting effects of TB4, dose-response curves to TB4 (10-8-10-2 M) were constructed and compared to KCl-induced contraction. Relaxation was studied in thromboxane (TXA2) precontracted arterial rings. The precontraction was adjusted to 20–40% of the reference contraction to 62 mM KCl, which after cumulative concentrations of TB4 was added to the organ bath. To evaluate the role of NO on the effects of TB4 induced vasodilation, experiments were repeated in arteries incubated with L-NNA, a NO synthase inhibitor (100 μM, 30 min). Data were collected and analyzed using Powerlab and Chart5 softwares (ADI Instruments, Colorado Springs, CO, USA).

[1] = test system: global myocardial ischemia-reperfusion injury; conditions: pig, TB4 6 mg/kg i.v. twice, n = 4, mean ± SD
Protocol: The pigs were pre-anesthetized with an intramuscular injection of 100 mg xylazin (Rompun vet, Bayer Animal Health GmbH, Leverkusen, Germany) and 25 mg midazolam (Midazolam Hameln, Hameln pharmaceuticals GmbH, Hameln, Germany). A peripheral ear vein was cannulated and the animals were medicated with 20 mg boluses of propofol (PropofolLipuro, B. Braun Melsungen AG, Melsungen, Germany) and 150 μg phentanyl (Fentanyl-Hameln, Hameln pharmaceuticals GmbH, Hameln, Germany) and were then intubated and connected to a respirator (Dräger Oxylog 3000, Drägerwerk AG, Lübeck, Germany). The respiratory rate was set to 18–22 times/min with a tidal volume of 8–10 ml/kg using 40% oxygen. Blood gases were monitored to ensure adequate ventilation (i-STAT, Abbott Laboratories, Abbott Park, IL, USA). Anesthesia was maintained with a continuous infusion of propofol 15–30 mg/kg/h, phentanyl 1.5 μg/kg/h and midazolam 100 μg/kg/h. Preoperatively and every 8 h thereafter the animals received antibiotic prophylaxis (Cefuroxime 750 mg, Orion Pharma, Espoo, Finland). Before the heart was cannulated 10000 IU of heparin (Heparin, LEO Pharma, Ballerup, Denmark) was given as a bolus and the dose was repeated every 30 min during extracorporeal circulation. […]
The pigs were placed in a left lateral decubitus position and the chest was shaved and disinfected. […] Blood lactate levels were monitored to ensure adequate perfusion. […]

[2] = test system: global myocardial ischemia-reperfusion injury; type: in vivo, pig
Protocol: The lung was displaced and the pericardium opened. […] Blood lactate levels were monitored to ensure adequate perfusion. […] After weaning, the animals were decannulated. […] The thoracotomy wound was closed in three layers. […] MRI study was performed at 1.5 T system (Philips GyroscanIntera Nova Dual MR, Philips Medical Systems, Best, The Netherlands) with a phased-array torso coil and a vector cardiographic method for ECG-gating. All acquisitions were obtained during short breath hold periods. Each MRI study consisted of cine imaging of both ventricles for volumetrics and wall motion at rest. Late enhancement (LE) imaging was applied for scar assessment. […] A phase-sensitive inversion recovery T1-TFE pulse sequence was applied for LE imaging 10 min after injecting gadoterate meglumine (Dotarem 279.3 mg/mL, Guerbet, Roissy CdG, France) with a dose 0.3 mmol/kg. The following imaging parameters were used: prospective gating, TR/TE 4.0/1.2 ms, flip angle 15°, acquisition matrix 168 × 256, reconstruction matrix 256 × 256, FOV 320-360 mm, rFOV 100%, 8-15 slices/breath hold, slice thickness 6 mm, and gap 0 mm. TI was optimized individually using a TI-scout sequence. The whole LV was covered by LE images at SA orientation.

[3] = Serum TB4 concentration by EIA after intravenous infusion; conditions: pig, 6 mg/kg
Protocol: The pigs were pre-anesthetized with an intramuscular injection of 100 mg xylazin (Rompun vet, Bayer Animal Health GmbH, Leverkusen, Germany) and 25 mg midazolam (Midazolam Hameln, Hameln pharmaceuticals GmbH, Hameln, Germany). A peripheral ear vein was cannulated and the animals were medicated with 20 mg boluses of propofol (PropofolLipuro, B. Braun Melsungen AG, Melsungen, Germany) and 150 μg phentanyl (Fentanyl-Hameln, Hameln pharmaceuticals GmbH, Hameln, Germany) and were then intubated and connected to a respirator (Dräger Oxylog 3000, Drägerwerk AG, Lübeck, Germany). […] Anesthesia was maintained with a continuous infusion of propofol 15–30 mg/kg/h, phentanyl 1.5 μg/kg/h and midazolam 100 μg/kg/h. […] TB4 (supplied by RegeneRx Biopharmaceuticals Inc, Rockville, MD, USA) was suspended in sterile water to a concentration of 4 mg/ml (0.82 mM) and administered 6 mg/kg through a 15 min intravenous infusion 30 min before the start of the operation and 6 h later.
Serial serum samples were collected from two animals in both groups for pharmacokinetic studies of TB4 by EIA. The serum was prepared and analyzed as parallel samples according to the manufacturers’ manual (Thymosin β4 EIA Kit, Immundiagnostik AG, Bensheim, Germany). A coefficient of variation (calculated as: sample SD/sample mean) of less than 50% between parallel samples was accepted for final analysis.

coronary arteries = test: Artery wire myography, coronary arteries; set-up: species or system pig
From the text: as §1

[4] = after intraperitoneal administration; ref Mora et al., 1997; cited from earlier work
Protocol: The preferred dosing range of TB4 seems to be 2–12 mg/kg both when using single and repeated strategies. […] We wanted to condition the heart before the operation and also affect the immediate post-operative reperfusion period and gave the animals two doses of TB4. Under physiological conditions, concentrations of the peptide in plasma and se ...

[5] = test system: global myocardial ischemia-reperfusion injury; test: Cardiomyocyte apoptosis by TUNEL after CPB and aortic cross-clamping; type: in vivo; conditions: pig; TB4 6 mg/kg i.v. twice; 30 h post-reperfusion; mean ± SD; p = 0.20 vs other group
Protocol: (§2) The lung was displaced and the pericardium opened. […] Blood lactate levels were monitored to ensure adequate perfusion. […] After weaning, the animals were decannulated. […] The thoracotomy wound was closed in three layers.
Transmural tissue samples from the left and right ventricles were collected and fixed in formalin. Hematoxylin and eosin staining was performed for general histological analysis. Cardiomyocyte apoptosis was determined by terminal transferase nick end-labeling assay (TUNEL) as previously described ([Gavrieli et al., 1992]; [Saraste et al., 1997]). Positive apoptotic nuclei were counted over an ocular grid and presented as a percentage of total cardiomyocyte number in 10 randomly selected microscopic visual high power (×40) fields by an investigator blinded to group assignments.

[6] = Completion of the 30 h follow-up period; type: in vivo, pig; conditions: TB4 treatment group n = 6; one died after weaning from CPB (bradycardia), one 20 h after reperfusion (circulatory failure)
From the text: Ten landrace pigs weighing 29–43 kg were operated on and divided into a TB4 treatment group (n = 6) and a control group (n = 4). All animal experiments were approved by the Laboratory Animal Care & Use Committee of the State Provincial Office of Southern Finland.
as §2

[7] = statement in discussion; ref Cierniewski et al., 2012; cited from earlier work
From the text: Thymosin beta 4 is normally found in the cytosol and also in the nucleus of cells but lacks a signal sequence for exocytosis. It is unclear whether the high concentrations found in extracellular fluids, is due to active secretion of the peptide or secondary to degranulation of inflammatory cells or cell membrane rupture ([Watts et al., 1990]; [Huff et al., 2001]). TB4 is water soluble and rapidly internalized by endothelial cells in vitro where it binds to actin and participates in the dynamics of the cytoskeleton ([Cierniewski et al., 2012]). At very high concentrations there is also some bin ...

citrated whole blood = test: Rotem thromboelastometry in vitro (EXTEM, INTEM, FIBTEM); set-up: species or system pig; conditions: for maximum clot firmness, FIBTEM: 1 h room temperature, platelets inhibited, three animals, mean ± SD
Protocol: Rotem®thromboelastometry (Tem Innovations GmbH, Basel, Switzerland) analysis was performed in vitro on blood samples from three blood-donor animals. TB4 was added to citrated whole blood to achieve two different concentrations (0.1 mM and 1 mM) and incubated at room temperature for 1 h. Untreated blood samples served as controls. The samples were analyzed and three parameters were drawn from the results at 60 min: Maximum clot firmness (stability of the blood clot), clotting time (time to clot formation), and maximum lysis of the blood clot. Assays used were EXTEM, INTEM, and FIBTEM. EXTEM measures the activity of the extrinsic pathway with tissue factor activation and INTEM of the intrinsic pathway with contact activation. FIBTEM is used for the assessment of fibrinogen status by complete platelet inhibition.

[8] = test system: global myocardial ischemia-reperfusion injury; test: Cardiac 15O-water PET, myocardial blood flow; type: in vivo; conditions: pig; 25 h post-reperfusion; n = 4; mean ± SD; p = 0.86 vs control
Protocol: as §2
The pigs underwent cardiac PET scans 25–26 h post-reperfusion to determine MBF during rest and adenosine stress. PET studies were performed with ECAT EXACT HR+ scanner (Siemens-CTI, Knoxville, TN, USA). Myocardial perfusion was evaluated by PET with ^15O-radiolabeled water (808 ± 129 MBq) both at rest and during intravenous adenosine stress (200 μg/kg/min). The acquisition frames were as follows: 14 × 5 s, 3 × 10 s, 3 × 20 s, and 4 × 30 s (total duration 4 min 40 s). The acquired PET data were reconstructed in 2D mode with an iterative reconstruction algorithm OSEM using six iteration and 16 subsets in the reconstruction. The transaxial field of view (35 cm) was reconstructed in a 128 × 128 matrix, yielding a pixel size of 2.57 mm × 2.57 mm. The measurements were corrected for scatter, random counts, and dead time. The device produces 63 axial planes with a slice thickness of 2.43 mm. Global myocardial perfusion (ml/g/min) was measured using Carimas 2 software (Turku PET Centre, Turku, Finland^1).

[9] = TB4 0.1 mM and 1 mM in whole blood

CC[C@H](C)[C@H](NC(=O)[C@H](CCC(=O)O)NC(=O)[C@H](C)NC(=O)[C@H](CCSC)NC(=O)[C@H](CC(=O)O)NC(=O)[C@@H]1CCCN1C(=O)[C@H](CCCCN)NC(=O)[C@H](CC(=O)O)NC(=O)[C@H](CO)NC(C)=O)C(=O)N[C@@H](CCC(=O)O)C(=O)N[C@@H](CCCCN)C(=O)N[C@@H](Cc1ccccc1)C(=O)N[C@@H](CC(=O)O)C(=O)N[C@@H](CCCCN)C(=O)N[C@@H](CO)C(=O)N[C@@H](CCCCN)C(=O)N[C@@H](CC(C)C)C(=O)N[C@@H](CCCCN)C(=O)N[C@@H](CCCCN)C(=O)N[C@H](C(=O)N[C@@H](CCC(=O)O)C(=O)N[C@H](C(=O)N[C@@H](CCC(N)=O)C(=O)N[C@@H](CCC(=O)O)C(=O)N[C@@H](CCCCN)C(=O)N[C@@H](CC(N)=O)C(=O)N1CCC[C@H]1C(=O)N[C@@H](CC(C)C)C(=O)N1CCC[C@H]1C(=O)N[C@@H](CO)C(=O)N[C@@H](CCCCN)C(=O)N[C@@H](CCC(=O)O)C(=O)N[C@H](C(=O)N[C@H](C(=O)N[C@@H](CCC(=O)O)C(=O)N[C@@H](CCC(N)=O)C(=O)N[C@@H](CCC(=O)O)C(=O)N[C@@H](CCCCN)C(=O)N[C@@H](CCC(N)=O)C(=O)N[C@@H](C)C(=O)NCC(=O)N[C@@H](CCC(=O)O)C(=O)N[C@@H](CO)C(=O)O)[C@@H](C)CC)[C@@H](C)O)[C@@H](C)O)[C@@H](C)O [TB4, Thymosin beta 4]
vasodilatation in mesenteric arteries (small mesentery arteries; TXA2 precontracted arterial rings, cumulative TB4 concentrations): did not, however, induce vasodilatation | contractile response, % of maximum potassium chloride stimulation (small mesentery arteries; mesenteric arteries, TB4 0.1–1 mM, reference 62 mM KCl, arteries from four animals): 15–30% | influence on vasoconstriction or vasodilation at physiological concentrations (small mesentery arteries; physiological concentrations of TB4, mesentery and coronary arteries): did not observe any influence | cTnT plasma concentration 6 h post-reperfusion ([1]; p = 0.27): 437 ± 291 ng/L | cTnT plasma concentration 24 h post-reperfusion ([1]; p = 0.55): 305 ± 75 ng/L | gadolinium contrast uptake on late-enhancement scans ([2]; 28 h post-reperfusion, any of the animals): No uptake of gadolinium contrast was observed | valvular abnormalities on cardiac MRI ([2]; pig, in vivo): One animal in the TB4 group had mild tricuspid valve regurgitation | left ventricle ejection fraction ([2]; pig, 28 h post-reperfusion, n = 4, mean ± SD, p = 0.45 vs control): 61.9 ± 10.6% | LVESV ([2]; pig, 28 h post-reperfusion, n = 4, mean ± SD, p = 0.49): 23.3 ± 8.7 mL | LVEDV ([2]; pig, 28 h post-reperfusion, n = 4, mean ± SD, p = 0.58): 60.1 ± 6.8 mL | level at time molar at 0.25 h [3]: 960 nM | level at time molar at 1 h [3]: 1250 nM | relaxation of coronary arteries (coronary arteries; TXA2 precontracted porcine coronary rings, TB4 alone): modest endothelium-dependent relaxation | relaxation of coronary arteries with nitric oxide synthase inhibitor (coronary arteries; arteries incubated with L-NNA 100 μM, 30 min): abolished | vasoconstriction in coronary arteries (coronary arteries; dose-response to TB4 compared to KCl-induced contraction): nor did it induce vasoconstriction | time of maximal tissue concentration in heart [4]: 2 h | TUNEL-positive apoptotic cells, right ventricle [5]: 0.94 ± 0.33% | animals not completing the follow-up period [6]: two animals did not complete the follow-up period | solubility in water [7]: water soluble | blood clotting time (citrated whole blood; [9]): did not have an effect | maximal blood clot fibrinolysis (citrated whole blood; [9]): did not have an effect | maximum clot firmness, FIBTEM (citrated whole blood; TB4 0.1 mM in citrated whole blood): 37.3 ± 5.9 mm | maximum clot firmness, FIBTEM (citrated whole blood; TB4 1 mM in citrated whole blood): 27.7 ± 4.2 mm | global myocardial blood flow during rest [8]: 1.92 ± 0.38 mL/g/min
